Data taken from patent publication EP4273147A1, “SUBSTITUTED SPIROLACTAMS, SALTS THEREOF AND THEIR USE AS HERBICIDALLY ACTIVE SUBSTANCES” (Bayer Aktiengesellschaft, priority 2022, dated 2023).

Assays:
DIGSA [1] = experiment: Herbicidal post-emergence action, section E (Table E4); assay type: in vivo, Digitaria sanguinalis; conditions: application rate 320 g/ha; assessed visually after ca. 3 weeks
Source text: (§1) 2 to 3 weeks after sowing, the test plants were sprayed in the single-leaf stage.

ABUTH [2] = experiment: Herbicidal pre-emergence action, section C (Table C1); assay type: in vivo, Abutilon theophrasti; conditions: application rate 80 g/ha; visual grading after ca. 3 weeks
VERPE [3] = experiment: Herbicidal pre-emergence action (Table A11); assay type: in vivo, Veronica persica; conditions: application rate 320 g/ha; visual grading after ca. 3 weeks
Summary of the method: (§2)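 In each pot of sandy loam, seed of a single monocot weed species was sown alongside seed of a single dicot weed species, and the seed was covered with soil.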

ORYZA = experiment: Post-emergence effects on crop plants (Table F3); assay type: in vivo, Oryza sativa; conditions: application rate 80 g/ha, crop plant ORYZA
Source text: as §1

ABUTH [4] = experiment: Herbicidal post-emergence action (Table B1); assay type: in vivo, Abutilon theophrasti; conditions: application rate 320 g/ha; treated at one-leaf stage; rated visually after about 3 weeks vs untreated controls (100% = plants have died, 0% = like control plants)
Summary of the method: (§3)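 Visual rating against untreated plants (0% = as control, 100% = dead) made roughly 3 weeks after application. Weed species were grown in sandy loam pots under greenhouse conditions and sprayed at the one-leaf stage, 2–3 weeks post-sowing.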

SETVI [5] = experiment: Herbicidal post-emergence action, section E (Table E8); assay type: in vivo, Setaria viridis; conditions: application rate 320 g/ha; assessed visually after ca. 3 weeks
Source text: as §1

ECHCG [6] = experiment: Herbicidal post-emergence action, section E (Table E5); assay type: in vivo, Echinochloa crus-galli; conditions: application rate 80 g/ha; assessed visually after ca. 3 weeks
Source text: as §1

LOLRI [7] = experiment: Herbicidal pre-emergence action (Table A3); assay type: in vivo, Lolium rigidum; conditions: application rate 320 g/ha; visual grading after ca. 3 weeks
Summary of the method: as §2

KCHSC = experiment: Herbicidal pre-emergence action (Table A10); assay type: in vivo, Kochia scoparia; conditions: application rate 1280 g/ha; visual grading after ca. 3 weeks
Summary of the method: as §2

ECHCG [8] = experiment: Herbicidal pre-emergence action, section C (Table C6); assay type: in vivo, Echinochloa crus-galli; conditions: application rate 80 g/ha; visual grading after ca. 3 weeks
VIOTR [9] = experiment: Herbicidal pre-emergence action, section C (Table C12); assay type: in vivo, Viola tricolor; conditions: application rate 80 g/ha; visual grading after ca. 3 weeks
AMARE = experiment: Herbicidal pre-emergence action (Table A8); assay type: in vivo, Amaranthus retroflexus; conditions: application rate 1280 g/ha; visual grading after ca. 3 weeks vs untreated controls (100% = plants have died off, 0% = as control plants)
Summary of the method: as §2

TRZAS = experiment: Post-emergence effects on crop plants (Table F2); assay type: in vivo, Triticum aestivum; conditions: application rate 80 g/ha, crop plant TRZAS
Source text: as §1

STEME = experiment: Herbicidal pre-emergence action (Table A6); assay type: in vivo, Stellaria media; conditions: application rate 320 g/ha; visual grading after ca. 3 weeks
Summary of the method: as §2

VERPE [10] = experiment: Herbicidal post-emergence action (Table B10); assay type: in vivo, Veronica persica; conditions: application rate 320 g/ha
Summary of the method: as §3

LOLRI [11] = experiment: Herbicidal post-emergence action (Table B5); assay type: in vivo, Lolium rigidum; conditions: application rate 320 g/ha; rated visually after about 3 weeks
Summary of the method: as §3

ECHCG [12] = experiment: Herbicidal post-emergence action (Table B3); assay type: in vivo, Echinochloa crus-galli; conditions: application rate 320 g/ha; rated visually after about 3 weeks
Summary of the method: as §3

SETVI [13] = experiment: Herbicidal pre-emergence action, section C (Table C10); assay type: in vivo, Setaria viridis; conditions: application rate 80 g/ha; visual grading after ca. 3 weeks
ALOMY [14] = experiment: Herbicidal pre-emergence action, section C (Table C2); assay type: in vivo, Alopecurus myosuroides; conditions: application rate 80 g/ha; visual grading after ca. 3 weeks
VIOTR [15] = experiment: Herbicidal post-emergence action, section E (Table E10); assay type: in vivo, Viola tricolor; conditions: application rate 320 g/ha; assessed visually after ca. 3 weeks
Source text: as §1

POAAN [16] = experiment: Herbicidal post-emergence action (Table B7); assay type: in vivo, Poa annua; conditions: application rate 320 g/ha
Summary of the method: as §3

GLXMA = experiment: Pre-emergence effects on crop plants (Table D4); assay type: in vivo, Glycine max; conditions: crop plant; application rate 80 g/ha; visual grading after ca. 3 weeks
ALOMY [17] = experiment: Herbicidal pre-emergence action (Table A9); assay type: in vivo, Alopecurus myosuroides; conditions: application rate 320 g/ha; visual grading after ca. 3 weeks
Summary of the method: as §2

LOLRI [18] = experiment: Herbicidal pre-emergence action, section C (Table C7); assay type: in vivo, Lolium rigidum; conditions: application rate 320 g/ha; visual grading after ca. 3 weeks
ALOMY [19] = experiment: Herbicidal post-emergence action, section E (Table E2); assay type: in vivo, Alopecurus myosuroides; conditions: application rate 320 g/ha; assessed visually after ca. 3 weeks
Source text: as §1

ALOMY [20] = experiment: Herbicidal post-emergence action (Table B2); assay type: in vivo, Alopecurus myosuroides; conditions: application rate 320 g/ha; rated visually after about 3 weeks
Summary of the method: as §3

MATIN [21] = experiment: Herbicidal post-emergence action (Table B6); assay type: in vivo, Matricaria inodora; conditions: application rate 320 g/ha; rated visually after about 3 weeks
Summary of the method: as §3

ECHCG [22] = experiment: Herbicidal pre-emergence action (Table A2); assay type: in vivo, Echinochloa crus-galli; conditions: application rate 320 g/ha; visual grading after ca. 3 weeks
Summary of the method: as §2

ABUTH [23] = experiment: Herbicidal pre-emergence action (Table A1); assay type: in vivo, Abutilon theophrasti; conditions: application rate 320 g/ha; visual grading after ca. 3 weeks vs untreated controls (100% = plants have died off, 0% = as control plants)
Summary of the method: as §2

VERPE [24] = experiment: Herbicidal pre-emergence action, section C (Table C11); assay type: in vivo, Veronica persica; conditions: application rate 320 g/ha; visual grading after ca. 3 weeks
MATIN [25] = experiment: Herbicidal pre-emergence action (Table A4); assay type: in vivo, Matricaria inodora; conditions: application rate 320 g/ha; visual grading after ca. 3 weeks
Summary of the method: as §2

DIGSA [26] = experiment: Herbicidal pre-emergence action (Table A12); assay type: in vivo, Digitaria sanguinalis; conditions: application rate 320 g/ha; visual grading after ca. 3 weeks
Summary of the method: as §2

DIGSA [27] = experiment: Herbicidal pre-emergence action, section C (Table C5); assay type: in vivo, Digitaria sanguinalis; conditions: application rate 80 g/ha; visual grading after ca. 3 weeks
MATIN [28] = experiment: Herbicidal pre-emergence action, section C (Table C8); assay type: in vivo, Matricaria inodora; conditions: application rate 320 g/ha; visual grading after ca. 3 weeks
POAAN [29] = experiment: Herbicidal pre-emergence action (Table A7); assay type: in vivo, Poa annua; conditions: application rate 320 g/ha; visual grading after ca. 3 weeks
Summary of the method: as §2

LOLRI [30] = experiment: Herbicidal post-emergence action, section E (Table E6); assay type: in vivo, Lolium rigidum; conditions: application rate 320 g/ha; assessed visually after ca. 3 weeks
Source text: as §1

DIGSA [31] = experiment: Herbicidal post-emergence action (Table B12); assay type: in vivo, Digitaria sanguinalis; conditions: application rate 320 g/ha
Summary of the method: as §3

ABUTH [32] = experiment: Herbicidal post-emergence action, section E (Table E1); assay type: in vivo, Abutilon theophrasti; conditions: application rate 320 g/ha; assessed visually after ca. 3 weeks
Source text: as §1

POLCO = experiment: Herbicidal pre-emergence action, section C (Table C9); assay type: in vivo, Polygonum convolvulus; conditions: application rate 320 g/ha; visual grading after ca. 3 weeks
ZEAMX = experiment: Post-emergence effects on crop plants (Table F1); assay type: in vivo, Zea mays; conditions: application rate 80 g/ha, crop plant ZEAMX
Source text: as §1

VERPE [33] = experiment: Herbicidal post-emergence action, section E (Table E9); assay type: in vivo, Veronica persica; conditions: application rate 320 g/ha; assessed visually after ca. 3 weeks
Source text: as §1

SETVI [34] = experiment: Herbicidal post-emergence action (Table B8); assay type: in vivo, Setaria viridis; conditions: application rate 320 g/ha
Summary of the method: as §3

SETVI [35] = experiment: Herbicidal pre-emergence action (Table A5); assay type: in vivo, Setaria viridis; conditions: application rate 320 g/ha; visual grading after ca. 3 weeks
Summary of the method: as §2

O=C1N(Cc2ccccc2F)CCCC12CCCN(Cc1ccccc1F)C2=O (single isomer, unassigned) [I-001]
80%: post-emergence activity against DIGSA (DIGSA [1]) | pre-emergence activity against ABUTH (ABUTH [2]) | post-emergence activity against VIOTR (VIOTR [15]) | post-emergence activity against ABUTH (ABUTH [32]) | pre-emergence activity against POLCO (POLCO)
100%: post-emergence activity against SETVI (SETVI [5]) | pre-emergence activity against LOLRI (LOLRI [7]) | pre-emergence activity against ECHCG (ECHCG [8]) | post-emergence activity against ECHCG (ECHCG [12]) | pre-emergence activity against SETVI (SETVI [13]) | pre-emergence activity against ALOMY (ALOMY [14]) | pre-emergence activity against LOLRI (LOLRI [18]) | pre-emergence activity against ECHCG (ECHCG [22]) | pre-emergence activity against DIGSA (DIGSA [26]) | pre-emergence activity against DIGSA (DIGSA [27]) | pre-emergence activity against MATIN (MATIN [28]) | pre-emergence activity against POAAN (POAAN [29]) | pre-emergence activity against SETVI (SETVI [35])
90%: pre-emergence activity against VERPE (VERPE [3]) | post-emergence activity against ABUTH (ABUTH [4]) | post-emergence activity against ECHCG (ECHCG [6]) | pre-emergence activity against KCHSC (KCHSC) | pre-emergence activity against VIOTR (VIOTR [9]) | pre-emergence activity against AMARE (AMARE) | pre-emergence activity against STEME (STEME) | post-emergence activity against VERPE (VERPE [10]) | post-emergence activity against LOLRI (LOLRI [11]) | post-emergence activity against POAAN (POAAN [16]) | pre-emergence activity against ALOMY (ALOMY [17]) | post-emergence activity against ALOMY (ALOMY [19]) | post-emergence activity against ALOMY (ALOMY [20]) | post-emergence activity against MATIN (MATIN [21]) | pre-emergence activity against ABUTH (ABUTH [23]) | pre-emergence activity against VERPE (VERPE [24]) | pre-emergence activity against MATIN (MATIN [25]) | post-emergence activity against LOLRI (LOLRI [30]) | post-emergence activity against DIGSA (DIGSA [31]) | post-emergence activity against VERPE (VERPE [33]) | post-emergence activity against SETVI (SETVI [34])
0%: post-emergence activity against ORYZA (ORYZA) | post-emergence activity against TRZAS (TRZAS) | pre-emergence activity against GLXMA (GLXMA) | post-emergence activity against ZEAMX (ZEAMX)
